PMC5974403, “The novel histone de acetylase 6 inhibitor, MPT0G211, ameliorates tau phosphorylation and cognitive deficits in an Alzheimer’s disease model” (Cell Death & Disease, 2018)
Peptide text beside a SMILES is read from it. * marks the point of attachment. Cbz = O=C(OCc1ccccc1)*

What was measured:
SH-SY5Y cells [1] = test: Western blot of acetyl-α-tubulin and acetyl-histone, SH-SY5Y cells; assay type: cell-based, human; details: 0.1 to 1 μM, 24 h
Method: (§1) Cell viabilities were determined by MTT assay. The results represent the mean ± SEM of three independent experiments; *p < 0.05, **p < 0.01 and ***p < 0.001 compared with controls TEXT PRINTED IN THE PICTURE: (A) no label printed: M.W. 293.32
(§2) Cells (1 × 10^6) were incubated for 10 min at 4 °C in lysis buffer (20 mM HEPES, pH 7.4, 2 mM EGTA, 50 mM β-glycerophosphate, 0.1% Triton X-100, 10% glycerol, 1 mM dithiothreitol, 1 μg/mL leupeptin, 5 μg/mL aprotinin, 1 mM phenylmethylsulfonyl fluoride, and 1 mM sodium orthovanadate), scraped from the plate, incubated on ice for 10 min, and centrifuged at 17,000 × g for 30 min at 4 °C. Protein samples (30 μg) were electrophoresed through sodium dodecyl sulfate-polyacrylamide gels (SDS-PAGE) and transferred onto a nitrocellulose membrane, which was then blocked by incubation for 30 min at room temperature with 5% fat-free milk in PBS. Immunoblotting was performed by overnight incubation at 4 °C with primary antibodies in PBS, followed by incubation for 1 h at room temperature with HRP-conjugated secondary antibodies. Bound antibodies were measured using ECL reagent (T-Pro Biotechnology, New Taipei City, Taiwan), and the membrane was placed on a photographic film. Cell lysates (30 μg) were incubated with antibodies (1 μg each) and protein A/G agarose beads overnight at 4 °C. The precipitated beads were washed three times with 1 mL of ice-cold cell lysis buffer, and bound immune complexes were separated using 8% SDS-PAGE, followed by immunoblotting using the indicated primary antibody.

Neuro-2a cells [2] = test: Western blot of acetyl-α-tubulin and acetyl-histone, Neuro-2a cells; assay type: cell-based, mouse; details: 0.1 to 1 μM, 24 h
Method: as §1, §2

SH-SY5Y cells [3] = test: Flow cytometry of sub-G1 (PI) and annexin V/PI in transfected SH-SY5Y cells; assay type: cell-based, human; details: hAPP + hTauP301L transfected SH-SY5Y, 0.1 μM, 24 h
Method: The fractionation scheme used to separate different cellular pools of tau, and the western blot analysis of the effects of the compounds on tau pools generated using the fractionation scheme are presented. b, d SH-SY5Y cells were transfected for 24 h with pCAX APP 695 and pRK5-EGFP-Tau P301L, incubated with or without MPT0G211 or ACY-1215 (0.1 μM) for another 24 h, and then the cells were fixed and stained by propidium iodide (b) or annexin V/PI double staining (d) and analyzed by flow cytometry. c, e Percentages of the subG1 phase (c) or annexin V-positive cells (e) in response to drug treatment as explained in (b). Results are presented as the mean ± SEM. *p < 0.05 and **p < 0.01 compared with the control group; ^#p < 0.05 and ^##p < 0.01 compared with the indicated groups TEXT PRINTED IN THE PICTURE: (B) MPT0G211: hAPP + hTauP301L: SubG1 10.91% | (B) ACY-1215: hAPP + hTauP301L: SubG1 15.40% | (D) MPT0G211: hAPP + hTauP301L: 9.56%; hAPP + hTauP301L: 11.26% | (D) ACY-1215: hAPP + hTauP301L: 9.28%; hAPP + hTauP301L: 11.25%
After drug treatment, the cells were collected, washed with cold phosphate-buffered saline (PBS), and fixed with 75% alcohol overnight at −20 °C. After centrifugation, the fixed cells were washed with cold PBS and resuspended in DNA extraction buffer (0.2 M Na2HPO4, 0.1 M citric acid, pH 7.8) for 30 min. The cells were centrifuged and incubated with propidium iodide (PI) (0.1% Triton X-100, 100 μg/mL RNase A, and 80 μg/mL PI in PBS) for 30 min. The cell cycle was analyzed using a FACScan Flow cytometer and Cell Quest software (Becton Dickinson, Mountain View, CA, USA).

Neuro-2a cells [4] = test: Western blot of tau phosphorylation and kinases in Neuro-2a cells transfected with pCAX APP 695 and pRK5-EGFP-Tau P301L; assay type: cell-based, mouse; details: Neuro-2a transfected, MG132 1 μM 30 min before MPT0G211 0.1 μM 24 h
Method: (§3) Images represented magnification at ×100. b Cells were transfected with pCAX APP 695 for 24 h, harvested, and cell lysates were subjected to Western blotting. c, d SH-SY5Y and Neuro-2a cells were transfected with pCAX APP 695 and/or pRK5-EGFP-Tau P301L for 24 h. Cell lysates were prepared for western blot analysis of the indicated proteins. e, f Cells were transfected with pCAX APP 695 and pRK5-EGFP-Tau P301L for 24 h and were then incubated with or without MPT0G211 or ACY-1215 (0.1 μM) for another 24 h. Cell lysates were subjected to western blot analysis using the indicated antibodies. Results are presented as the mean ± SEM from three independent experiments. **p < 0.01, ***p < 0.001 compared with the control group; ^#p < 0.05, ^##p < 0.01 compared with the indicated groups
(§4) Cell lysates were prepared for western blot analysis of the indicated proteins. Results are presented as the mean ± SEM. *p < 0.05, **p < 0.01, and ***p < 0.001 compared with the control group; ^#p < 0.05, ^##p < 0.01, ^###p < 0.001 compared with the indicated groups
(§5) Cells were seeded 1 day before transfection. The plasmids pCAX FLAG APP and pRK5-EGFP-Tau P301L (1 μg each) and 1 μL of TurboFect transfection reagent were mixed for 20 min at room temperature, added to the cells, and the suspensions were incubated for 24 h at 37 °C in a humidified atmosphere containing 5% CO2.
as §2

SH-SY5Y cells [5] = test: Western blot of tau phosphorylation and kinases in SH-SY5Y cells transfected with pCAX APP 695 and pRK5-EGFP-Tau P301L; assay type: cell-based, human; details: SH-SY5Y transfected, MG132 1 μM 30 min before MPT0G211 0.1 μM 24 h
Method: as §3, §4, §5, §2

[6] = Fig. 3d picture, quadrant not identified

| Structure (SMILES) | acetylation of α-tubulin (SH-SY5Y cells [1]) | acetylation of α-tubulin (Neuro-2a cells [2]) | SubG1 population (SH-SY5Y cells [3]; PI staining, Fig. 3b picture) [%] | annexin V/PI double staining, quadrant percentage (SH-SY5Y cells [3]; [6]) [%] | annexin V/PI double staining, quadrant percentage (first value) (SH-SY5Y cells [3]; [6]) [%] | effect on MPT0G211-induced inhibition of p-tau at Ser396 (Neuro-2a cells [4]) | effect on MPT0G211-induced inhibition of p-tau at Ser396 (SH-SY5Y cells [5]) | acetylation of histones (SH-SY5Y cells [1]) | acetylation of histones (Neuro-2a cells [2]) |
| --- | --- | --- | --- | --- | --- | --- | --- | --- | --- |
| O=C(CCCCCCNC(=O)c1cnc(N(c2ccccc2)c2ccccc2)nc1)NO [ACY-1215, reference compound] | less acetylation of α-tubulin | less acetylation of α-tubulin | 15.40 | 11.25 | 9.28 | – | – | – | – |
| CC(C)C[C@@H](C=O)NC(=O)[C@H](CC(C)C)NC(=O)[C@H](CC(C)C)NC(=O)OCc1ccccc1 [MG132, reference compound] (Cbz-Leu-Leu-Leu-aldehyde) | – | – | – | – | – | significantly reversed | significantly reversed | – | – |
| O=C(CCCCCCC(=O)Nc1ccccc1)NO [SAHA] | significantly increased | significantly increased | – | – | – | – | – | significantly increased | significantly increased |
